Measured values: US12251373B2, “Compounds and methods of treating retinal degeneration” (CASE WESTERN RESERVE UNIVERSITY, priority 2017, dated 2025)

Columns and labels:
rod opsin = target: T1, rod opsin (Mus musculus, UniProt P15409); assay: cAMP quantification assay in NIH3T3-(WT-opsin/GFP) cells; type: cell-based
T1 construct: expressed in transfected cells
Text: Three NIH3T3 stable cell lines, NIH3T3-(WT-opsin/GFP), NIH3T3-(P23H-opsin/GFP), and NIH3T3-(GFP) were previously generated which stably express mouse WT opsin and GFP; P23H opsin and GFP; and only GFP, respectively. GFP is expressed separately from opsin in these cell lines. NIH3T3 cells were from ATCC. DNA constructs for generating these stable cell lines were confirmed by Sanger sequencing. Expression of GFP was confirmed by green fluorescence imaging, and expression of P23H and WT opsin were confirmed by immunoblots.
NIH3T3-(Opsin/GFP) and NIH3T3-(GFP) were plated in two 96-well plates at a density of 50,000 cells per well in 100 μl of DMEM medium containing 10% FBS and antibiotics. After 24 h, cells were washed with Krebs Ringer bicarbonate buffer containing glucose (KRBG), and incubated with KRBG buffer containing 100 μM cAMP specific phosphodiesterase inhibitor, Ro 20-1724 (Tocris, UK) at RT for 10 min. […] While one plate then was wrapped with aluminum foil, the second plate was exposed to regular room light. Both plates were kept in a cell culture incubator for 15 min at 37° C. in 5% CO2. Levels of accumulated cAMP were detected with the Catchpoint cAMP fluorescent assay kit (Molecular Devices, Sunnyvale, CA USA) and the fluorescence with excitation/emission at 530/590 nm was read with a Flexstation3 plate reader (Molecular Devices) as described in the manufacturer's protocol.

bovine opsin = target: T2, bovine opsin (Bos taurus, UniProt P02699); assay: Isorhodopsin pigment regeneration of opsin in ROS disc membranes (absorption spectroscopy); type: biochemical; details: for competition with 9-cis-retinal for isorhodopsin regeneration (absorption at 495 nm): with 5 μM 9-cis-retinal, simultaneously or sequentially
T2 construct: ROS membranes were isolated from bovine retinas under dim red light; from tissue; host or cells: bovine retina rod outer segment (ROS) membranes, bleached with hydroxylamine
Description: ROS membranes were isolated from bovine retinas under dim red light. To remove membrane associated proteins, ROS membranes were washed with a hypotonic buffer composed of 5 mM bis-tris propane (BTP) and 1 mM EDTA, pH 7.5, followed by gentle homogenization with subsequent centrifugation at 25,000 g for 30 min. This procedure was repeated four times. The final membrane pellet was suspended in 10 mM sodium phosphate buffer, pH 7.0, and 50 mM hydroxylamine to a 3 mg mL^−1 concentration of rhodopsin, placed on ice and illuminated with a 150 Watt bulb for 30 min. Membranes were pelleted by centrifugation at 16,000 g for 5 min and then washed four times with 10 mM sodium phosphate buffer, pH 7.0, and 2% bovine serum albumin followed by 4 washes with 10 mM sodium phosphate buffer, pH 7.0, and 2 washes with 20 mM BTP, pH 7.5, and 100 mM NaCl. The concentration of opsin was measured with a UV-visible spectrophotometer and quantified using the absorption coefficient ε280 nm=81,200 M^−1 cm^−1.
ROS membranes containing opsin were suspended in buffer composed of 20 mM BTP, pH 7.5, and 100 mM NaCl at a final concentration of 2.5 μM. […] Membranes then were solubilized with 20 mM DDM for 10 min at RT and UV-visible spectra of these samples were measured. To follow the kinetics of isorhodopsin regeneration, opsin membranes were treated with 0, 20 or 60 μM YC-001 for 15 min at RT. […] UV-visible spectra of the samples were measured every 2 min until 2 h of reaction time at RT. Each condition was repeated three times. The time course of isorhodopsin regeneration was fitted by a second order exponential decay and apparent half-lives were obtained at the time when reaction reached half of the end-point product.
Alternatively, opsin incubated with the above ligands was purified by 1D4-immunoaffinity chromatography. […] After washing, opsin samples were eluted by addition of 1D4 peptide ([…]) (SEQ ID NO: 1) to the above buffer and their spectra were measured with a UV-visible spectrophotometer.

C57BL/6 mice = assay: Retinoid cycle analyses (11-cis-retinyl oxime after bleaching); type: in vivo, mouse; details: 200 mg kg−1 bw i.p., compared to DMSO
Description: To test if treatment with YC-001 affects visual pigment regeneration, we quantified the 11-cis-retinyl oxime extracted from retinas of C57BL/6 mice after different periods of dark adaptation following exposure to bright light. Mice at 6 weeks of age were administered YC-001 at 200 mg kg^−1 bw via i.p. injection. At 30 min following YC-001 administration, eyes were dilated with 1% tropicamide. Mice then were anesthetized with a cocktail containing 20 mg mL^−1 of ketamine and 1.75 mg mL^−1 of xylazine at a dose of 4 μL g^−1 bw. Anesthetized mice were exposed to bright light with an intensity of 10,000 lux for 10 min to bleach about 90% of the rhodopsin pigment. Mice then were returned to the dark for recovery. Animals then were euthanized at 0, 2, 4, 6 or 24 h after bleaching and recovery in the dark, and their eyes were removed and homogenized in 1 mL of 1:1 PBS:ethanol mixture (v/v) containing 40 mM hydroxylamine. […] 11-cis-Retinyl oxime released from the regenerated rhodopsin pigments were separated on an Agilent Sil column (5 μm, 4.6×250 mm) with an isocratic flow of 10% ethyl acetate in hexanes (1.5 mL min^−1) and detected at 325 nm. Amounts of 11-cis-retinyl oximes per eye were quantified by normalizing the peak area to an 11-cis-retinyl oxime standard. 11-cis-Retinyl oximes were quantified in three eye samples per condition, and the means and s.d.s were calculated.

T1 sequence (P15409 whole entry): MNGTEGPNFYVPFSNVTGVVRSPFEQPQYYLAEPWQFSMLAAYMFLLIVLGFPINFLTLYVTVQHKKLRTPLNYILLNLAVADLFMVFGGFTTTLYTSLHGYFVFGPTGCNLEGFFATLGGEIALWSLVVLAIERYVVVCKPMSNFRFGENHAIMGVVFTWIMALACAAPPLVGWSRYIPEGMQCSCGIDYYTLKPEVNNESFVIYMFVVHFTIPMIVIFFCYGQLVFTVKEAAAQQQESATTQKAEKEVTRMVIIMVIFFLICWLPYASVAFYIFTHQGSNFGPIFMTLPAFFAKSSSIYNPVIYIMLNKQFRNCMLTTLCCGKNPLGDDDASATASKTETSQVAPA
T2 sequence (P02699 whole entry): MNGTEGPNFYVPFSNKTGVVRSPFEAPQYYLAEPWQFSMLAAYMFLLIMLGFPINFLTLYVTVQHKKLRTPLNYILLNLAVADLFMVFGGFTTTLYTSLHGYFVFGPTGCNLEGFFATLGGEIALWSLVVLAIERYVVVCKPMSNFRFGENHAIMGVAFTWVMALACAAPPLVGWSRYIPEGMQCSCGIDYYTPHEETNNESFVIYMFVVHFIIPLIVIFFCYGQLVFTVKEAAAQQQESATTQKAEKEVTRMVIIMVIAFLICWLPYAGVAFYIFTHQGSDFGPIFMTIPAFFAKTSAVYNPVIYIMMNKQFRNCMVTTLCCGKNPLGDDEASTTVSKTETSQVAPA

SMILES | cAMP levels, co-treated with 1 μM 9-cis-retinal under light (rod opsin; FIG. 5c) | EC50 (rod opsin; either in the dark or light, read-out: EC50 of dose-dependent increase in cAMP levels) [µM] | total amount of regenerated isorhodopsin pigment at the end of the reaction (bovine opsin; FIG. 4d) | kinetics of isorhodopsin pigment regeneration (bovine opsin; YC-001 then 9-cis-retinal, FIG. 4d) | reversibility of interaction with opsin (bovine opsin; after opsin/isorhodopsin purification) | competition with 9-cis-retinal for isorhodopsin regeneration (absorption at 495 nm) (bovine opsin) | recovery of 11-cis-retinyl oxime after photobleaching (C57BL/6 mice) | cAMP level upon light exposure (rod opsin; NIH3T3-(WT-opsin/GFP) cells, light) | fold increase in EC50 of 9-cis-retinal dose-response curve (rod opsin; with 40 μM YC-001 co-treatment vs 9-cis-retinal alone) [fold]
O=C1OCC(c2ccc(Cl)s2)=C1c1cccs1 [YC-001] | dose-dependent elevation in cAMP levels | 8.22 | didn't affect the total amount | slowed down the kinetics of pigment regeneration | reversible | less isorhodopsin was generated | little difference | – | –
O=C(CCCCCN1C(=O)c2cccc3cccc(c23)C1=O)NO [Scriptaid, reference compound] | – | – | – | – | – | does not compete with 9-cis-retinal | – | – | –
CC1=C(/C=C/C(C)=C\C=C\C(C)=C\C=O)C(C)(C)CCC1 [9-cis-retinal, reference compound] | – | – | – | – | – | – | – | significantly reduced cAMP level | 3
